Measured values reported in US20230123601A1, “PHARMACEUTICAL COMBINATION OF ANTIVIRAL AGENTS TARGETING HBV AND/OR AN IMMUNE MODULATOR FOR TREATMENT OF HBV” (priority 2019, published 2023).

Test system: HBV
Assay: HBsAg levels in serum of AAV/HBV mice (CLIA)
Format: in vivo, C57BL/6 mice
Parameters: HBsAg levels in serum (Average ± SD): scale not given here
From the text: The AAV-HBV mouse model is generated by injecting C57BL/6 mice with recombinant adeno-associated virus harboring a replicable HBV genome (AAV-HBV). The rAAV8-1.3 HBV ayw virus stock was purchased from Beijing FivePlus Molecular Medicine Institute (Beijing, China). The animals (male, aged 4-5 weeks upon arrival) were purchased from SLAC Laboratory Animal Co. Ltd (Shanghai, China), acclimatized in the animal facility for 5-7 days, and then injected with 1×10^11 vector genome of AAV-HBV (diluted in 200 μL of PBS) through the tail vein. Persistence expression of HBV genome can be established after three weeks, with high levels of HBV viral markers including HBV DNA, HBsAg, and HBeAg in mouse serum. With stable HBV viremia and competent immune system of the C57BL/6 mice, the AAV-HBV mouse model was used to evaluate the in vivo anti-HBV efficacy of the compounds. The in-life part of the AAV-HBV study was conducted through contracted service at Covance Pharmaceutical Research and Development (Shanghai) Co. Ltd. (Covance Shanghai) and the post-life analysis using the serum was performed internally at Roche Innovation Center Shanghai (RICS).
Seven days before compound treatment, blood samples were collected for serum preparation (˜15 μL), and based on HBV DNA, HBsAg levels in serum and body weight, the AAV-HBV infected animals were stratified into the different treatment groups.
Saline (Group 01) and anti-HBV ASO of CMP ID NO: 15_1 at 1.5 or 7.5 mg/kg were dosed sub subcutaneously once a week during Day 0-49 on Days 0, 7, 14, 21, 28, 35, 42 and 49. TLR7 agonist of CMP ID NO: VI 100 mg/kg was administered by oral gavage once every other day during Day 0-55 (QOD) or once weekly during Day 0-49 on Days 0, 7, 14, 21, 28, 35, 42 and 49 (QW). The animals were weekly bled via retro-orbital sinus for sample collection throughout the study.
Serum HBsAg levels were determined in the serum of infected AAV-HBV mouse using the HBsAg chemoluminescence immunoassay (CLIA) (Autobio diagnostics Co. Ltd., Zhengzhou, China, Cat. no. CL0310-2), according to the manufacturer's protocol. Briefly, 50 μl of serum was transferred to the antibody coated microtiter plate and 50 μl of enzyme conjugate reagent was added. The plate was incubated for 60 min on a shaker at room temperature before all wells were washed six times with washing buffer using an automatic washer. 25 μl of substrate A and then 25 μl of substrate B was added to each well. The plate was incubated for 10 min at RT before luminescence was measured using an Envision luminescence reader (Perkin Elmer). HBsAg is given in the unit IU/ml; where 1 ng HBsAg=1.14 IU.
To evaluate the combination of the anti-HBV ASO and the TLR7 agonist in an in vivo system, a mouse model of chronic HBV infection was used. In the AAV/HBV mouse model described in the Materials and Method a persistent HBV infection is established resulting in expression of viral markers (HBsAg, HBeAg, HBV DNA) detectable in plasma. The effect on these viral markers upon treatment with the anti-HBV ASO of CMP ID NO: 15_1 (table 2, and FIG. 4) dosed at 1.5 mg/kg or 7.5 mg/kg and the TLR7 agonist of CMP ID NO: VI (table 3) dosed with […] every other day (QOD) or once weekly (QW) in monotherapy or in combination has been evaluated.

Compound: CC[C@H](OC(C)=O)[C@@H]1C[C@@H](O)[C@H](n2c(=O)sc3cnc(N)nc32)O1 [CMP ID NO: VI, [(1S)-1-[(2S,4R,5R)-5-(5-amino-2-oxo-thiazolo[4,5-d]pyrimidin-3-yl)-4-hydroxy-tetrahydrofuran-2-yl]propyl] acetate]
- HBsAg levels in serum (Average ± SD) (D56, 15_1 7.5 mg/kg weekly, VI 100 mg/kg QW, or combination of both): 2.13 ± 1.00
- HBsAg levels in serum (Average ± SD) (D63, 15_1 1.5 mg/kg weekly, VI 100 mg/kg QOD, or combination of both): 1.61 ± 0.96
- HBsAg levels in serum (Average ± SD) (D63, 15_1 1.5 mg/kg weekly, VI 100 mg/kg QW, or combination of both): 2.43 ± 1.14
- HBsAg levels in serum (Average ± SD) (D63, 15_1 7.5 mg/kg weekly, VI 100 mg/kg QOD, or combination of both): 1.61 ± 0.96
- HBsAg levels in serum (Average ± SD) (D63, 15_1 7.5 mg/kg weekly, VI 100 mg/kg QW, or combination of both): 2.43 ± 1.14
- HBsAg levels in serum (Average ± SD) (D70, 15_1 1.5 mg/kg weekly, VI 100 mg/kg QOD, or combination of both): 1.9 ± 1.23
- HBsAg levels in serum (Average ± SD) (D70, 15_1 1.5 mg/kg weekly, VI 100 mg/kg QW, or combination of both): 2.48 ± 1.23
- HBsAg levels in serum (Average ± SD) (D70, 15_1 7.5 mg/kg weekly, VI 100 mg/kg QOD, or combination of both): 1.90 ± 1.23
- HBsAg levels in serum (Average ± SD) (D70, 15_1 7.5 mg/kg weekly, VI 100 mg/kg QW, or combination of both): 2.48 ± 1.23
- HBsAg levels in serum (Average ± SD) (D77, 15_1 1.5 mg/kg weekly, VI 100 mg/kg QOD, or combination of both): 1.91 ± 1.18
- HBsAg levels in serum (Average ± SD) (D77, 15_1 1.5 mg/kg weekly, VI 100 mg/kg QW, or combination of both): 2.41 ± 1.16
- HBsAg levels in serum (Average ± SD) (D77, 15_1 7.5 mg/kg weekly, VI 100 mg/kg QOD, or combination of both): 1.91 ± 1.18
- HBsAg levels in serum (Average ± SD) (D77, 15_1 7.5 mg/kg weekly, VI 100 mg/kg QW, or combination of both): 2.41 ± 1.16
- HBsAg levels in serum (Average ± SD) (D84, 15_1 1.5 mg/kg weekly, VI 100 mg/kg QOD, or combination of both): 2.25 ± 1.16
- HBsAg levels in serum (Average ± SD) (D84, 15_1 1.5 mg/kg weekly, VI 100 mg/kg QW, or combination of both): 2.66 ± 1.15
- HBsAg levels in serum (Average ± SD) (D84, 15_1 7.5 mg/kg weekly, VI 100 mg/kg QOD, or combination of both): 2.25 ± 1.16
- HBsAg levels in serum (Average ± SD) (D84, 15_1 7.5 mg/kg weekly, VI 100 mg/kg QW, or combination of both): 2.66 ± 1.15
- HBsAg levels in serum (Average ± SD) (D91, 15_1 1.5 mg/kg weekly, VI 100 mg/kg QOD, or combination of both): 2.05 ± 1.35
- HBsAg levels in serum (Average ± SD) (D91, 15_1 1.5 mg/kg weekly, VI 100 mg/kg QW, or combination of both): 2.66 ± 1.44
- HBsAg levels in serum (Average ± SD) (D91, 15_1 7.5 mg/kg weekly, VI 100 mg/kg QOD, or combination of both): 2.05 ± 1.35
- HBsAg levels in serum (Average ± SD) (D91, 15_1 7.5 mg/kg weekly, VI 100 mg/kg QW, or combination of both): 2.66 ± 1.44
- HBsAg levels in serum (Average ± SD) (D98, 15_1 1.5 mg/kg weekly, VI 100 mg/kg QOD, or combination of both): 2.36 ± 1.26
- HBsAg levels in serum (Average ± SD) (D98, 15_1 1.5 mg/kg weekly, VI 100 mg/kg QW, or combination of both): 2.83 ± 1.16
- HBsAg levels in serum (Average ± SD) (D98, 15_1 7.5 mg/kg weekly, VI 100 mg/kg QOD, or combination of both): 2.36 ± 1.26
- HBsAg levels in serum (Average ± SD) (D98, 15_1 7.5 mg/kg weekly, VI 100 mg/kg QW, or combination of both): 2.83 ± 1.16
- HBsAg levels in serum (Average ± SD) (D105, 15_1 1.5 mg/kg weekly, VI 100 mg/kg QOD, or combination of both): 2.41 ± 1.18
- HBsAg levels in serum (Average ± SD) (D105, 15_1 1.5 mg/kg weekly, VI 100 mg/kg QW, or combination of both): 2.81 ± 1.1
- HBsAg levels in serum (Average ± SD) (D105, 15_1 7.5 mg/kg weekly, VI 100 mg/kg QOD, or combination of both): 2.41 ± 1.18
- HBsAg levels in serum (Average ± SD) (D105, 15_1 7.5 mg/kg weekly, VI 100 mg/kg QW, or combination of both): 2.81 ± 1.10
- HBsAg levels in serum (Average ± SD) (D111, 15_1 1.5 mg/kg weekly, VI 100 mg/kg QOD, or combination of both): 2.69 ± 1.38
- HBsAg levels in serum (Average ± SD) (D111, 15_1 1.5 mg/kg weekly, VI 100 mg/kg QW, or combination of both): 3.1 ± 1.12
- HBsAg levels in serum (Average ± SD) (D111, 15_1 7.5 mg/kg weekly, VI 100 mg/kg QOD, or combination of both): 2.69 ± 1.38
- HBsAg levels in serum (Average ± SD) (D111, 15_1 7.5 mg/kg weekly, VI 100 mg/kg QW, or combination of both): 3.10 ± 1.12
- initial rate of reduction in HBsAg (TLR7 agonist alone, FIG. 10A): slow initial rate of reduction in HBsAg
- time of lowest HBsAg (TLR7 agonist alone, FIG. 10A (100 mg/kg QOD)): 42 days
- suppression of HBsAg (TLR7 agonist at any of the doses): not capable of suppressing HBsAg to a level below the detection limit
